Test results published in patent US9458122B2, “Process for purifying crude furan 2,5-dicarboxylic acid using hydrogenation” (Eastman Chemical Company, priority 2012, dated 2016).

Experiment: solubility of FDCA in water at different temperatures
Format: physicochemical
Conditions: ambient pressure, as water temperature increases beyond 130° C. (FIG. 2)
Experimental: FIG. 2 depicts the solubility of FDCA in water at different temperatures.
Suitable dissolution temperatures are those effective to dissolve the desired amount of FDCA solids into solution. The hydrogenation solvent composition may be added at (by pre-heating) or heated in the dissolution zone to a temperature of at least 120° C. under a pressure and time sufficient to allow for at least 80 wt. % dissolution, although to reduce the time required for dissolution, it is desirable that the hydrogenation solvent composition temperature is at least 130° C., or at least 135° C., or at least 140° C., or at least 150° C.

- solubility of FDCA in water: increases dramatically
SMILES: O=C(O)c1ccc(C(=O)O)o1 [FDCA, Furan 2,5-dicarboxylic acid]
